Data reported in article PMC6934184, “Selective DNA-PKcs inhibition extends the therapeutic index of localized radiotherapy and chemotherapy” (The Journal of Clinical Investigation, 2019).

Biological target: T1, PRKX (Homo sapiens, UniProt P51817)
T1 construct: purchased Thermo Fisher Scientific (Life Technologies) SelectScreen
Experiment: SelectScreen Z'LYTE
Format: biochemical
Outline: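 SelectScreen broad panel; activity (Z'LYTE, Adapta) plus binding formats. ATP: Km app for CSF1R Z'LYTE; 10 for CAMK1 Adapta. Readout = % per kinase.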

T1 sequence (P51817 whole entry): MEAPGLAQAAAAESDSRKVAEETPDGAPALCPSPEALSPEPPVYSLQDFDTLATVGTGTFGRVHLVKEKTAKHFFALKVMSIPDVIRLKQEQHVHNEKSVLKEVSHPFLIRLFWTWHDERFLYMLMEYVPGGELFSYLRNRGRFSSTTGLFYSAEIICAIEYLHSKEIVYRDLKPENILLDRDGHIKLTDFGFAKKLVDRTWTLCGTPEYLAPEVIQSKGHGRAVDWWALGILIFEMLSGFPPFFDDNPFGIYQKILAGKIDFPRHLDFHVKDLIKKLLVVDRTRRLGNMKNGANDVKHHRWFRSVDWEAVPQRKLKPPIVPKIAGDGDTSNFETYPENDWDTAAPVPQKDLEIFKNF

CN(C(=O)CN1CCOCC1)c1ccc2sc3c(-c4cccc5c(=O)cc(N6CC7CCC(C6)O7)oc45)cccc3c2c1 [NU5455]
inhibition at 1 µM: 12.5%
